Source: US20220289731A1, “MELANOCORTIN-4 RECEPTOR AGONISTS” (LG CHEM, LTD., priority 2019, published 2022)
Where a name gives a salt, the structure may show the parent alone.

What was measured:
[1] = target: T1, MC4R (Homo sapiens, UniProt P32245); test: Luciferase assay (HEK MC4R-Luc, CRE-LUC); assay type: cell-based; parameters: expressed in transfected cells; details: HEK MC4R-Luc cells, 5 h incubation
Method: In order to measure the agonist ability against MC4R (melanocortin-4 receptor), a cell line that permanently expresses the luciferase gene (CRE-LUC) under the control of MC4R and CRE (cAMP response element) was established. After a mammalian cell expression vector (pCDNA3 (Neo)) (Invitrogen) containing the MC4R gene was prepared, human embryonic kidney (HEK) cell lines were transformed by using Lipofectamine 2000 (Invitrogen) together with a vector (pCRE-Luc)(Stratagen) expressing a luciferase gene (CRE-LUC) under the control of a cAMP response element (CRE). Transformed cell lines (HEK MC4R-Luc) were incubated in a 37° C. incubator in the presence of 5% CO2 for 24 hours by using Dulbecco's Modified Eagles Medium (DMEM) containing 10% Heat-Inactivated Fetal Bovine Serum (GIBCO/BRL). The cell lines were incubated for four days in the presence of Dulbecco's Modified Eagles Medium (DMEM) containing 10 ml of selection medium (10% Heat-Inactivated Fetal Bovine Serum (GIBCO/BRL), 100 unit/ml of penicillin (GIBCO/BRL), 100 unit/ml of streptomycin (GIBCO/BRL), 800 μg/ml of Geneticin (G418) (GIBCO/BRL). The process of removing cells killed by the selection medium by replacing the medium with 10 ml of a new selection medium was repeated three times, once every 4 days. Individual colonies formed by the finally selected and propagated clones were transferred under a microscope to a 24-well cell culture plate containing 1 ml of selection medium per well and incubated for 4 days. Forskolin (SIGMA) was treated to a final concentration of 10 μM, and then incubated for five hours in a 37° C. incubator in the presence of 5% CO2. Each well was treated with 50 μl of a Bright-Glo luciferase reagent (Promega) and left at room temperature for 15 minutes, and then the luminescence of each well was measured by using a luminometer (Victor).
HEK MC4R-Luc cells were added to each well of a 96-well luminometer cell culture plate (Costar) to a size of 2.5×10^4 cells in 100 μl of a culture medium and then incubated in a 37° C. incubator in the presence of 6% CO2 for 18 hours. […] Each well was treated with 50 μl of a Bright-Glo luciferase reagent (Promega) and left at room temperature for five minutes, and then the luminescence of each well was measured by using a luminometer (Victor). […] EC0.5 MSH is expressed as a concentration that induces 50% of the maximum amount of luminescence that can be induced by NDP-α-MSH, and EC50 is expressed as a concentration that induces 50% of the maximum amount of luminescence that can be induced by each agonist. The measurements were measured using statistical software (Prizm).
Target sequence in this assay (P32245 whole entry, species assumed): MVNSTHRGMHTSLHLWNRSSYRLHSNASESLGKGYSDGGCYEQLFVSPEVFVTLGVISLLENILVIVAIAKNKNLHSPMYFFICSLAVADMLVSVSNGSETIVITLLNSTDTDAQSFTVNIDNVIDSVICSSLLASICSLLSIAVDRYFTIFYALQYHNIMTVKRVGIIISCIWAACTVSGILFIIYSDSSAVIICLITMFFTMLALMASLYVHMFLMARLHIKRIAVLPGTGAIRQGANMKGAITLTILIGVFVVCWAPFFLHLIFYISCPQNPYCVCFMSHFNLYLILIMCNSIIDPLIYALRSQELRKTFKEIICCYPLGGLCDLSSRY

[2] = target: T1, MC4R; test: Binding affinity, 125I-NDP-α-MSH displacement on membranes; parameters: expressed in transfected cells; host or cells: HEK-293 cells; membranes collected; details: HEK-293 MC4R membrane, 0.02 nM 125I-NDP-α-MSH
Excerpt: Five subtypes of melanocortin receptor (MCR) in vivo are known, and it is known that MC4R, which is Subtype 4, is involved in energy metabolism and weight control. Since other MCR subtypes are involved in the regulation of various functions in vivo such as skin pigmentation, energy homeostasis, and exocrine functions, securing selectivity for MC4R of MC4R agonist compounds is very important in preventing possible side effects in the future. Therefore, the receptor binding abilities of MC4R agonists for each MCR subtype were measured.
After the CHO-K1 cell line expressing human recombinant MC1R and the HEK-293 cell lines expressing MC3R, MC4R and MCSR were established, membranes were collected from each cell line. In a 96-well cell culture plate, 3 μg MC1R membrane and 0.04 nM ^125I-NDP-α-MSH per well were reacted at 37° C. for two hours. 3 μg MC3R and MCSR membrane and 0.035 nM ^125I-NDP-α-MSH were reacted at 37° C. for one hour, and 3.12 μg MC4R membrane and 0.02 nM ^125I-NDP-α-MSH were reacted at 37° C. for two hours. At this time, 25 mM HEPES-KOH adsorption buffer (pH 7.0) containing MCR agonist diluted at each step concentration was added to each well and reacted. The reacted solution was transferred to a filter and washed with an adsorption buffer, and then radioactivity was measured. The value excluding the non-specific binding amount in the presence of 1 μM (MC1R) and 3 μM (MC3R, MC4R, MCSR) of NDP-α-MSH from each total binding amount was used as specific binding amounts of ^125I-NDP-α-MSH. The degree to which the ^125I-NDP-α-MSH specific binding was inhibited by the agonist diluted at each step concentration was measured. IC50 was expressed as the concentration of each agonist that inhibited specific binding of 50% of ^125I-NDP-α-MSH.
Target sequence in this assay (P32245 whole entry): as the sequence (P32245 whole entry, species assumed) above

[3] = target: T1, MC4R; test: cAMP assay (cAMP Hunter Gs-coupled CHO-K1 cell line); assay type: cell-based; parameters: expressed in transfected cells; host or cells: CHO-K1 (cAMP Hunter Gs-coupled cell line); details: CHO-K1 cells overexpressing MC4R, 30 min at 37° C.
Excerpt: The melanocortin receptor is a type of G-protein coupled receptor (GPCR), and the main role of G-protein is to activate secondary transducers to regulate cellular responses to many physiological stimuli through signal transduction. MC4R is a Gs-coupled receptor, and it is known that if MC4R interacts with an agonist, adenylate cyclase (AC) is activated to increase the concentration of cyclic AMP (cAMP), which is one of the secondary transducers in cells. Therefore, it is possible to evaluate the activity of melanocortin receptors by measuring the generation of cAMP signals.
After cAMP Hunter Gs-coupled cell lines (CHO-K1 cell line) in which each of MC1R, MC3R, MC4R and MCSR was overexpressed were established so that the increase in the cAMP level in cells due to agonist reaction was measurable, the cells were inoculated into each well of a white cell culture plate and incubated for 24 hours in a 37° C. incubator in the presence of 5% CO2. After the incubation, the medium was removed, and 15 μl of a 2:1 HBBS/10 mM HEPES:cAMP XS+Ab reagent was added. After 5 μl of the sample diluted 4 times with buffer was added, the vehicle concentration was set to 1%, and the MC4R agonist compound diluted at each step concentration was added, followed by reaction at 37° C. for 30 minutes. The activity (%) of each agonist compound is expressed as 100%×(average RLU value of sample−average RLU value of vehicle control)/(average RLU value of max control−average RLU value of vehicle control), and the value was analyzed by CBIS data analysis suite (ChemInnovation, CA).
Target sequence in this assay (P32245 whole entry, species assumed): as above

[4] = target: T1, MC4R; test: β-arrestin assay (Pathhunter eXpress U2OS cell line); assay type: cell-based; parameters: expressed in transfected cells; host or cells: U2OS (Pathhunter eXpress β-arrestin cell line); details: U2OS cells, 90 min at 37° C.
Excerpt: The melanocortin receptor is a type of G-protein coupled receptor (GPCR) and regulates various physiological responses by transducing signals from many neurotransmitters. When GPCR is phosphorylated, β-arrestin is bound to the phosphorylated part of the receptor and plays an important role in activating various signaling pathways in cells through interaction with other proteins. It is known that, when the melanocortin receptor interacts with an agonist, β-arrestin is mobilized and is involved in the β-arrestin-mediated signaling pathway. Therefore, the activity of the melanocortin receptor can be evaluated through the measurement of β-arrestin.
A Pathhunter eXpress β-arrestin cell line (U2OS cell line) in which Prolink (PK)-tagged MC1R, MC3R, MC4R, MC5R and Enzyme acceptor (EA)-tagged β-arrestin were expressed together was established. When the MCR-PK portion of this cell line is activated, β-arrestin-EA is mobilized, and enzyme acceptor (EA) and Prolink (PK), which are the β-galactosidase enzyme fragments, interact. The activated enzyme hydrolyzes the substrate by β-galactosidase activity to produce a chemiluminescent signal, so that the activity can be measured. After the Pathhunter eXpress β-arrestin cell line (U2OS cell line) was incubated, the cells were inoculated into each well of the cell culture plate and incubated for 48 hours in a 37° C. incubator in the presence of 5% CO2. After the incubation, 5 μl of the sample diluted 5 times with buffer was added, the vehicle concentration was set to 1%, and the MC4R agonist compound diluted at each step concentration was added, followed by reaction at 37° C. for 90 minutes. The activity (%) of each agonist compound is expressed as 100%×(average RLU value of sample−average RLU value of vehicle control)/(average maximum value of control ligand−average RLU value of vehicle control), and the value was analyzed by CBIS data analysis suite (ChemInnovation, CA).
Target sequence in this assay (P32245 whole entry): as the sequence (P32245 whole entry, species assumed) above
Target sequence in this assay (P32121 whole entry partner): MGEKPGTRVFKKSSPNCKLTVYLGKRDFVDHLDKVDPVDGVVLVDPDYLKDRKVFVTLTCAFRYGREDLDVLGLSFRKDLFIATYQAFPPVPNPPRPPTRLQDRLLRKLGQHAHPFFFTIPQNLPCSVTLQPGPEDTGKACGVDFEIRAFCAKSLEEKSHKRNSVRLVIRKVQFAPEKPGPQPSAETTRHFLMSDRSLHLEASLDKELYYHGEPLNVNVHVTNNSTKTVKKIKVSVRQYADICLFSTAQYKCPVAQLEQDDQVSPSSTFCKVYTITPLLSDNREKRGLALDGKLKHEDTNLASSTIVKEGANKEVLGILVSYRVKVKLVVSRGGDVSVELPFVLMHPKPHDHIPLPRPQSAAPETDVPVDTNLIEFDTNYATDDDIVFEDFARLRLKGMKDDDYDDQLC

[5] = tested on: mouse obesity model induced by high fat diet; test: Mouse obesity model induced by high fat diet; assay type: in vivo, C57BL/6Ntaconic mice; details: Day 12, 10 mg/kg, oral once a day, high-fat-diet obese mice
Method: The effect of melanocortin-4 receptor agonists on obesity was evaluated by using the mouse obesity model induced with a high fat diet.
Five-week-old male C57BL/6Ntaconic mice were fed with a 60 kcal % fat diet (D12492, Research Diet.) for 15 weeks to induce obesity. The compound of Example 1, the compounds of the comparative examples (A95 and A96), and sibutramine as a positive control were prepared in distilled water and orally administered to […] mouse obesity models induced by a high-fat diet once a day from day 1 to day 16. From Day 1 to Day 16, the body weight was measured once a day, the dietary intake was measured five times a week, and drinking water intake was measured twice a week. Blood glucose and glycated hemoglobin were measured on Day 15, and all animals were sacrificed on Day 17. Blood was collected through the abdominal vena cava, and the liver and epididymal adipose tissues were removed and weighed. The collected blood was placed in a heparin tube and centrifuged to separate plasma, and then plasma biochemical analysis was performed.

| Structure (SMILES) | EC50 [1] | Ki [2] | EC50 [3] | EC50 [4] | Difference in weight change rate to vehicle [5] |
| --- | --- | --- | --- | --- | --- |
| CC(C)(C)C(=O)N([C@H]1C[C@@H](C(=O)N2CCOCC2)N(C(=O)[C@@H]2CN(C(C)(C)C)C[C@H]2c2ccc(Cl)cc2)C1)[C@H]1CC[C@@H](C)CC1 [Example 3, N-((3S,5S)-1-((3S,4R)-1-(tert-butyl)-4-(4-chlorophenyl)pyrrolidine-3-carbonyl)-5-(morpholine-4-carbonyl)pyrrolidin-3-yl)-N-((1s,4R)-4-methylcyclohexyl)pivalamide hydrochloride] | 0.675 nM | 24 nM | 22.7 nM | 3.3 nM | – |
| CCC(=O)N([C@H]1C[C@@H](C(=O)N2CCOCC2)N(C(=O)[C@@H]2CN(C(C)(C)C)C[C@H]2c2ccc(Cl)cc2)C1)[C@H]1CC[C@@H](C)CC1 [Example 2, N-((3S,5S)-1-((3S,4R)-1-(tert-butyl)-4-(4-chlorophenyl)pyrrolidine-3-carbonyl)-5-(morpholine-4-carbonyl)pyrrolidin-3-yl)-N-((1s,4R)-4-methylcyclohexyl)propionamide hydrochloride] | 1.07 nM | 110 nM | 50.3 nM | 8.7 nM | – |
| CC(C)CC(N(C)C)C1(c2ccc(Cl)cc2)CCC1 (stereo not drawn) [Sibutramine] | – | – | – | – | −6.8% |
